According to the Deep4Chem optical property database:
“And” between values parts separate entries of the source, which are not always exact repeats. Identical values can stand only once.

Experiment: solvent given as SMILES

Work on CCC1(CC)c2ccccc2-c2c1c1c(c3c2C(CC)(CC)c2cc(B(c4c(C)cc(C)cc4C)c4c(C)cc(C)cc4C)ccc2-3)C(CC)(CC)c2ccccc2-1 yielded an emission maximum (in C1CCOC1) of 385 nm, an emission maximum (in CC#N) of 404 nm and an emission maximum (in CC(C)=O) of 395 nm. The emission maximum (in CCCCCC) was 372 nm and the emission maximum (in ClC(Cl)Cl) was 387 nm.
For COc1ccc(-c2cc(B(c3c(C)cc(C)cc3C)c3c(C)cc(C)cc3C)c(-c3sc(-c4ccc(OC)cc4)cc3P(=O)(c3ccccc3)c3ccccc3)s2)cc1, the emission maximum (in CO) was 586 nm.
Work on COc1cc2sc3cc(OC)c(F)cc3c(=O)c2cc1F yielded an emission maximum (in CS(C)=O) of 416 nm.
Compound CC(=O)OCCN1C(=O)c2cccc3c(Oc4ccc(C=O)cc4)ccc(c23)C1=O has an emission maximum (in ClC(Cl)Cl) of 411 nm.
For c1ccc2c(-c3ccc4sc5ccc(-c6c7ccccc7cc7ccccc67)cc5c4c3)c3ccccc3cc2c1, the emission maximum (in C1CCCCC1) was 399.14 nm, the emission maximum (in CC#N) was 402.78 nm and the emission maximum (in ClCCl) was 408.25 nm.
In the case of CN(C)c1ccc(/C=C/c2cc(/C=C/c3ccc(N(C)C)cc3)ncn2)cc1, the emission maximum (in ClCCl) is reported as 530 nm.
Compound CCOC(=O)CN1C(=O)C2=C(c3ccc(N4CCCCC4)cc3)N(CC(=O)OCC)C(=O)C2=C1c1ccc(N2CCCCC2)cc1 has an emission maximum (in CC#N) of 590 nm, an emission maximum (in CS(C)=O) of 603 nm and an emission maximum (in Cc1ccccc1) of 575 nm.
Compound C(=C1c2ccccc2CCc2ccccc21)c1ccc(C=C2c3ccccc3CCc3ccccc32)cc1 has an emission maximum (in C1CCOC1) of 406 nm.
Cc1cc(C)c(B2c3cc(C(C)(C)C)cc4ccc5ccc6cc(C(C)(C)C)cc2c6c5c34)c(C)c1 gave an emission maximum (in C1CCCCC1) of 430 nm.
Compound O=C1OC(=O)c2ccc(N(c3ccccc3)c3ccc4ccc5cccc6ccc3c4c56)c3cccc1c23 has an emission maximum (in CCCCCC) of 536 nm and an emission maximum (in c1ccccc1) of 605 nm.
CC1(C)c2cc(/C=C/c3nc(/C=C/c4ccc5c(c4)C(C)(C)c4cc(N(c6ccccc6)c6ccccc6)ccc4-5)nc(/C=C/c4ccc5c(c4)C(C)(C)c4cc(N(c6ccccc6)c6ccccc6)ccc4-5)n3)ccc2-c2ccc(N(c3ccccc3)c3ccccc3)cc21 showed an emission maximum (in C1CCOC1) of 555 nm.
Compound O=c1c2cc(C#Cc3ccccc3)ccc2nc2ccc(C#Cc3ccccc3)cn12 has an emission maximum (in ClCCl) of 478 nm.
Compound CC(C)[Si](C#Cc1c2ccccc2c(C#C[Si](C(C)C)(C(C)C)C(C)C)c2nc3cc4c(cc3nc12)C1c2ccccc2C4c2ccccc21)(C(C)C)C(C)C has an emission maximum (in CCCCCC) of 568 nm and an emission maximum (in ClCCl) of 593 nm.
Compound c1cc2c3c(cccc3c1)-c1c-2c2c3ccccc3c3ccc4c5c6c(c7c8ccccc8c8ccc9c%10c%11c(c%12c%13ccccc%13c%13ccc%14c1c1c2c3c4c2c1c1c%14c%13c%12c%10c1c1c9c8c7c5c21)-c1cccc2cccc-%11c12)-c1cccc2cccc-6c12 has an emission maximum (in C1CCOC1) of 594 nm.
With O=Cc1ccc(-c2cccc(-c3nc4ccccc4s3)c2O)s1 the emission maximum (in CCO) was 576 nm, the emission maximum (in ClCCl) was 566 nm and the emission maximum (in O) was 595 nm.
F[B-]1(F)n2c(Oc3ccccc3)c(Cl)c(Br)c2C(Oc2ccccc2)=C2C(Br)=C(Cl)C(Oc3ccccc3)=[N+]21 gave an emission maximum (in ClCCl) of 544 nm.
c1ccc(-c2nc(-c3ccccc3)nc(-c3ccc(-n4c5ccccc5c5c6oc7ccccc7c6ccc54)cc3)n2)cc1 showed an emission maximum (in C1CCCCC1) of 393.5 nm, an emission maximum (in C1CCOC1) of 473.68 nm and an emission maximum (in Cc1ccccc1) of 430.34 nm. The emission maximum (in O=P(c1ccccc1)(c1ccccc1)c1ccccc1Oc1ccccc1P(=O)(c1ccccc1)c1ccccc1) was 429.14 nm.
Work on CC[n+]1c(C=C2C(=O)C(C=C3N(C)c4ccccc4C3(C)C)=C2[O-])sc2ccccc21 yielded an emission maximum (in CO) of 651 nm and an emission maximum (in ClC(Cl)Cl) of 666 nm.
Clc1nnc(Oc2ccc(N(c3ccc(Br)cc3)c3ccc(Br)cc3)cc2)nn1 showed an emission maximum (in ClCCl) of 559 nm.
For COc1ccccc1C1=C2C(C)=CC(C)=[N+]2[B-](F)(F)n2c(C)cc(C)c21, the emission maximum (in C1CCOC1) was 516 nm, the emission maximum (in CC#N) was 512 nm and the emission maximum (in CC(=O)C(C)(C)C) was 514 nm. The emission maximum (in CC(C)=O) was 513 nm, the emission maximum (in CCCCCC) was 516 nm and the emission maximum (in CCOC(C)=O) was 514 nm. For the same compound, the emission maximum (in CO) was 514 nm.
CCOC(=O)CCCCCn1c2ccc(F)cc2c(=O)c2cc3c(cc21)c(=O)c1cc(F)ccc1n3CCCCCC(=O)OCC showed an emission maximum (in CO) of 566 nm.
With C=CCOC(=O)C(C#N)=C1C=C(/C=C/c2ccc(N(C)C)cc2)OC(/C=C/c2ccc(N(C)C)cc2)=C1 the emission maximum (in C1CCOC1) was 595 nm, the emission maximum (in C1COCCO1) was 564 nm and the emission maximum (in CC#N) was 624 nm. For the same compound, the emission maximum (in CN(C)C=O) was 616 nm, the emission maximum (in Cc1ccccc1) was 556 nm and the emission maximum (in ClC(Cl)Cl) was 585 nm. The emission maximum (in ClCCCl) was 614 nm and the emission maximum (in ClCCl) was 601 nm.
For CCCOc1ccc(/C=C/C=C/C=C/c2ccc([N+](=O)[O-])cc2)cc1, the emission maximum (in CC1CCCCC1) was 488 nm, the emission maximum (in CC#N) was 747 nm and the emission maximum (in Cc1ccccc1) was 546 nm. For the same compound, the emission maximum (in ClCCl) was 699 nm.
Compound CCCCCCc1cc2c3c(c1)c(=C1c4ccccc4Sc4ccccc41)c1cc(CCCCCC)cc4c1N3c1c(cc(CCCCCC)cc1c4=C1c3ccccc3Sc3ccccc31)c2=C1c2ccccc2Sc2ccccc21 has an emission maximum (in ClCCl) of 498 nm.
Compound COc1ccc(N2c3sc4ccccc4c3Sc3c2sc2ccccc32)cc1 has an emission maximum (in ClCCl) of 549 nm.
Work on C(=C\c1c2ccccc2cc2ccccc12)/c1cccc2ccccc12 yielded an emission maximum (in CC1CCCCC1) of 501 nm and an emission maximum (in CC#N) of 503 nm.
In the case of CCOc1ccc(/C=C/C=C/C=C/c2ccc([N+](=O)[O-])cc2)cc1, the emission maximum (in CC1CCCCC1) is reported as 488 nm, the emission maximum (in CC#N) is reported as 740 nm and the emission maximum (in Cc1ccccc1) is reported as 541 nm. The emission maximum (in ClCCl) was 694 nm.
With CC(=O)c1c(N[C@@H](Cc2ccccc2)C(=O)O)c2ccc(N(C)C)cc2oc1=O the emission maximum (in ClCCl) was 450 nm.
In the case of CCCC[Si](C)(C)c1cccc2ccccc12, the emission maximum (in C1CCCCC1) is reported as 329 nm.
With N#Cc1c(N2CCCCC2)cc(-c2cccc3ccccc23)c2c1-c1ccccc1C2 the emission maximum (in C1CCOC1) was 442 nm.
In the case of CCCCCCc1ccc(-n2c3[n+](c4c5ccccc5c5ccccc5c42)[B-](C)(C)c2ccccc2-3)cc1, the emission maximum (in C1CCOC1) is reported as 384 nm, the emission maximum (in CC#N) is reported as 385 nm and the emission maximum (in Cc1ccccc1) is reported as 385 nm. It also gave an emission maximum (in ClCCl) of 385 nm.
For COc1ccc(/C=C/c2cc(/C=C/c3ccc(N(c4ccccc4)c4ccccc4)cc3)nc(/C=C/c3ccc(N(C)C)cc3)n2)cc1, the emission maximum (in C1CCOC1) was 436 nm, the emission maximum (in CC#N) was 463 nm and the emission maximum (in CC(C)=O) was 452 nm. It also gave an emission maximum (in CCCCCCC) of 398 nm, an emission maximum (in CS(C)=O) of 485 nm and an emission maximum (in Cc1ccccc1) of 411 nm. It also gave an emission maximum (in ClCCl) of 548 nm.
In the case of COc1ccccc1C1=[N+]2C(=C(c3ccc(I)cc3)c3ccc(-c4ccccc4OC)n3[B-]2(F)F)C=C1, the emission maximum (in ClC(Cl)Cl) is reported as 598 nm and 597 nm.
Work on F[B-]1(F)OC(c2ccc(C(F)(F)F)cc2)=Cc2cc(Cl)nc[n+]21 yielded an emission maximum (in C1CCOC1) of 428 nm, an emission maximum (in CC#N) of 425 nm and an emission maximum (in CCCCCC) of 421 nm. It also gave an emission maximum (in Cc1ccccc1) of 434 nm, an emission maximum (in ClC(Cl)Cl) of 426 nm and an emission maximum (in ClCCl) of 426 nm.
Cc1ccc(-c2ccc(/C=C/c3cccs3)cn2)nc1 showed an emission maximum (in CC#N) of 422 nm.
In the case of O=c1oc2cccc3c4cccc5ccc6c7ccccc7c1c(c23)c6c54, the emission maximum (in C1CCOC1) is reported as 446 nm.
Cc1ccc(-n2c(-c3ccccc3N)nc3c4ccccc4c4ccccc4c32)cc1 gave an emission maximum (in Cc1ccccc1) of 396 nm.
In the case of N#Cc1cccc(-c2pc3ccccc3s2)c1 (centres undefined), the emission maximum (in CC#N) is reported as 432 nm.
Work on CCN1c2ccc(/C=N/Nc3ccccn3)cc2Sc2cc(-c3cccc4ccccc34)ccc21 yielded an emission maximum (in C1CCOC1) of 487 nm, an emission maximum (in CS(C)=O) of 498 nm and an emission maximum (in Cc1ccccc1) of 482 nm. It also gave an emission maximum (in ClCCl) of 491 nm.
c1ccc(-c2nc(-c3ccccc3)nc(-c3ccc(-n4c5ccccc5c5ccc6c7ccccc7n(-c7ccccc7)c6c54)cc3)n2)cc1 gave an emission maximum (in Cc1ccccc1) of 459 nm and an emission maximum (in O=P(c1ccccc1)(c1ccccc1)c1ccc2oc3ccc(P(=O)(c4ccccc4)c4ccccc4)cc3c2c1) of 477 nm.
